The text below walks through data of patent US20210094899A1, “ACRYLIC ACID ANALOGS” (Recurium IP Holdings, LLC, priority 2017, published 2021).

One data set has as its system MCF7 cells. Kind of data set: Breast cancer cell proliferation assay (MCF-7), Cell Titer-Glo. Type of data set: cell-based. To be noted: Homo sapiens, 120 h, 5 days of compound exposure. Here is the method:
Breast Cancer Cell Proliferation Assay (MCF-7)
MCF7 cells were expanded and maintained in DMEM (Hyclone SH30272.01, Phenol red free) with NEAA (Gibco11140-050), Na-pyruvate (Gibco 11360-070) and Re-stripped Charcoal stripped FBS (Gemini 100-119)). The cells were adjusted to a concentration of 3,000 cells per mL and incubated (37° C., 5% CO2). The following day a 10 point, serial dilution of compounds was added to the cells at a final concentration ranging from 10 μM to 0.000005 μM for test compounds (17β-estradiol was used as a control). Additional cells were plated in 30 wells to serve as the day 1 (pretreatment) comparison. After 5 days of compound exposure, Cell Titer-Glo reagent was added to the cells and the relative luminescence units (RLUs) of each well was determined Cell Titer-Glo was also added to 32 μL of medium without cells to obtain a background value. The plates were allowed to incubate at room temperature for 10 minutes to stabilize luminescent signal and the luminescence signal was recorded with EnSpire. The relative increase in cell number of each sample is determined as follows: (RLU sample-RLU background/RLU estrogen only treated cells-RLU background)×100=[…].

Data set [1] concerns the target T1, ESR1 protein (estrogen receptor alpha) (Homo sapiens, UniProt P03372).
T1 construct: After incubating cells with the indicated compounds for 18-24 hours, cell lysates were prepared; endogenous in cells; host or cells: MCF-7
T1 sequence (P03372 1-595): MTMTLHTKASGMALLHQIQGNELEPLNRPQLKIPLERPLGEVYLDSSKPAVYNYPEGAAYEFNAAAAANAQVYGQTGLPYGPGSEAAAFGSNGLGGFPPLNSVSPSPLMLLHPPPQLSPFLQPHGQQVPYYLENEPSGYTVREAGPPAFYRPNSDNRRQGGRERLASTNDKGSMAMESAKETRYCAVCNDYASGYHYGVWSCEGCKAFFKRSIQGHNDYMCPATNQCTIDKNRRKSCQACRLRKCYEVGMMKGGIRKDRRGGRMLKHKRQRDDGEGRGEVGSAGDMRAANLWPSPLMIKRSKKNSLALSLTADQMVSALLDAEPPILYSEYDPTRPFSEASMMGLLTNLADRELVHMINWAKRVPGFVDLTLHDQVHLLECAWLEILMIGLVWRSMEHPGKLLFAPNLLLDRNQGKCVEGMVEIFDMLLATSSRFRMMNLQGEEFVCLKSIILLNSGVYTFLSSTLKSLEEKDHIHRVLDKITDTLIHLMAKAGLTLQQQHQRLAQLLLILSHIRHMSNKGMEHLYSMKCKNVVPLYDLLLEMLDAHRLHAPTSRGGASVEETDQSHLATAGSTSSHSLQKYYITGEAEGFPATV
In words: ER degradation determination by Western blot in MCF-7 cells. Type of data set: cell-based. The note with it: 10 μM, 18-24 hours. The procedure:
ER Degradation Determination by Western Blot
MCF-7 cells were plated at 0.3 million cells/mL (3 mL/well) in 6-well plates in experiment media and incubated at 37° C., 5% CO2 for 48 hours. A 10× solution of compounds were made in DMSO and added the solution to the cells to achieve a final concentration of 10 μM. A DMSO control was included to enable a determination of the relative efficacy of test compounds. […] After incubating cells with the indicated compounds for 18-24 hours, cell lysates were prepared (2× Cell lysis buffer: 100 mM Tris, pH 8, 300 mM NaCl, 2% NP40, 1% Na deoxycholate, 0.04% SDS and 2 mM EDTA) and mixed thoroughly and incubated on ice. The protein concentration was quantified using BCA kit. […] The gel was then transferred onto a nitrocellulose membrane. […] GAPDH protein was used as an internal control.

The target in another data set is T2, ERα (ESR1 protein) (Homo sapiens, UniProt P03372).
T2 construct: After incubating cells with the indicated compounds for 18-24 hours, cell lysates were prepared; endogenous in cells; host or cells: MCF-7
T2 sequence (P03372 1-595): T1 sequence (P03372 1-595)
Kind of data set: ERα EC50 determination (Western blot band density, MCF-7 cells). Type of data set: cell-based. The note with it: 18-24 hours, ERα degradation. The text has this:
A DMSO control was included to enable a determination of the relative efficacy of test compounds. […] The protein concentration was quantified using BCA kit.

Data set [2] can be described thus: Pharmacokinetic determination in mice. The note with it: mouse. Type of data set: in vivo, female CD mice. The procedure:
(§1) Pharmacokinetic Determination
(§2) Grouping female CD mice weighing 20-30 g or female SD rats weighing 200-300 g randomly to two groups; one group was administered with test compound at a dose of 3.0 mg/kg by intravenous injection, the other group was administered with test compound at a dose of 10.0 mg/kg orally. The formulation for IV groups were DMSO/PEG400/150 mM glycine (pH 9) (5/10/85) and the formulation for PO groups were PEG400/PVP/Tween 80/0.5% CMC in water (9/0.5/0.5/90). After administering, blood samples of intravenous injection group were collected at time points of predose, 0.0833, 0.25, 0.5, 1, 2, 4, 8, 12 and 24 h; blood samples of oral group were collected at time points of predose, 0.25, 0.5, 1, 2, 4, 8, 12, and 24 h. Standard curve was plotted based on concentrations of the samples in a suitable range, the concentrations of test compounds in plasma samples were determined by using LC-MS/MS. Pharmacokinetic parameters were calculated according to drug concentration-time curve using a noncompartmental method by WinNonLin (Phoenix™, version 6.1) or other similar software.

The nature of data set [3]: Pharmacokinetic determination in rats. Type of data set: in vivo, female SD rats. The note with it: rat. Here is the method:
as §1, §2

The next data set has as its target T3, estrogen receptor (Homo sapiens, UniProt P03372).
T3 sequence (P03372 1-595): T1 sequence (P03372 1-595)
The note with it: 500 mg monthly dose; cited from earlier work.

The mark [4] stands for this setting: female, CD, plasma, IV, 3.0 mg/kg.
Where [5] appears, read: female, CD, plasma, PO, 10.0 mg/kg.
[6] abbreviates: female, SD, plasma, IV, 3.0 mg/kg.
[7] abbreviates: female, SD, plasma, PO, 10.0 mg/kg.

In the case of `CC/C(=C(/c1ccc(/C=C/C(=O)O)cc1)c1ccc2[nH]ncc2c1)c1ccc(F)cc1Cl` [ARN810], the IC50 in the data set with MCF7 cells was ≤ 0.025 µM.
Consider `C[C@@H]1Cc2c([nH]c3ccccc23)[C@@H](c2c(F)cc(/C=C/C(=O)O)cc2F)N1CC(C)(C)F` [AZD9496], for which the IC50 in the data set on MCF7 cells was ≤ 0.025 µM. Also, in data set [1], the ERα % degradation result was “A (ERα % degradation ≥ 80%)”.
On to `CC/C(=C(\c1ccc(O)cc1)c1ccc(/C=C/C(=O)O)cc1)c1ccc(F)cc1Cl` [Example 1, (E)-3-(4-((E)-2-(2-chloro-4-fluorophenyl)-1-(4-hydroxyphenyl)but-1-en-1-yl)phenyl)acrylic acid], for which, in the data set with MCF7 cells, the IC50 is ≤ 0.025 µM. The ERα % degradation result in data set [1] is “B (ERα % degradation < 80%)”. The EC50 on ERα (ESR1 protein) was < 0.025 µM. In addition, the AUC(0-inf) was 2.4 µM·h in data set [2] (setting [4]), 7 µM·h in data set [2] (setting [5]), 6.3 µM·h in data set [3] (setting [6]) and 11.1 µM·h in data set [3] (setting [7]). The clearance in data set [2] (setting [4]) worked out at 2.98 L/h/kg; in data set [3] (setting [6]), 1.14 L/h/kg. Besides, the half-life was 3.9 h in data set [2] (setting [4]), 3.4 h in data set [2] (setting [5]), 3.9 h in data set [3] (setting [6]) and 8 h in data set [3] (setting [7]). The Vd came out at 6 L/kg in data set [2] (female, CD, plasma, IV, 3.0 mg/kg, read-out: Vdss) and 2.9 L/kg in data set [3] (female, SD, plasma, IV, 3.0 mg/kg, read-out: Vdss). Besides, the peak concentration (Cmax) in data set [2] (setting [5]) came to 2.5 µM; in data set [3] (setting [7]), 5.7 µM. Also, the time of peak concentration (Tmax) was found to be 0.25 h in data set [2] (setting [5]) and 0.5 h in data set [3] (setting [7]). Further, the F in data set [2] (PO, 10.0 mg/kg) turned out to be 88%; in data set [3] (PO, 10.0 mg/kg) it was 53%.
With `C[C@]12CC[C@@H]3c4ccc(O)cc4C[C@@H](CCCCCCCCC[S+]([O-])CCCC(F)(F)C(F)(F)F)[C@H]3[C@@H]1CC[C@@H]2O` (stereo partly drawn) [fulvestrant], the IC50 in the data set on MCF7 cells was ≤ 0.025 µM. The ERα % degradation entry in data set [1] is listed as “A (ERα % degradation ≥ 80%)”. Besides, the “turnover of the receptor in patient samples” value on estrogen receptor is given as “less than 50%”.
